The values that follow come from PubChem BioAssay (NCI).

Assay in all cases: DTP human tumour cell line panel, 48 h
Experiment [1] relates to MOLT-4 leukemia.
Experiment [2] relates to HL-60(TB) leukemia.
Experiment [3] deals with OVCAR-3 ovarian.
The test system of experiment [4] is NCI-H522 lung.
Experiment [5] relates to LOX IMVI melanoma.
Experiment [6] deals with A549 NSCLC.
Experiment [7] relates to SF-295 CNS.
Experiment [8] deals with NCI-H23 lung.
In experiment [9] the test system is RXF 393 renal.
Experiment [10] has as its system MCF7 breast.

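Cultured in 96-well plates, cells were exposed to test compound for 48 hours across five concentrations. GI50 = concentration required for 50% inhibition of growth. The concentration for full growth arrest is given as TGI.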

For the compound `CC(=O)[CH-]C(=O)c1ccccc1.CC(=O)[CH-]C(=O)c1ccccc1.O=S(=O)([O-])c1cc([O-])c2c([O-])cc(S(=O)(=O)[O-])cc2c1.[Na+].[Ti+4]`, the GI50 is 34.3 µM in experiment [1]; above 100 µM in experiment [2]; above 100 µM in experiment [3]; 70.7 µM in [4]; above 100 µM in [5]; above 100 µM in experiment [6]. In addition, the GI50 in [7] is 55.7 µM. In addition, the TGI in [1], in experiment [2], in experiment [3], in [4], in [5] and in experiment [6] was above 100 µM throughout. Moreover, in experiment [7], the TGI was above 100 µM.

Consider `CCc1cccc(C)c1NC(=O)CC1C(=O)Nc2ccccc2S1=O` (configuration not stated), for which the TGI in experiment [1] was above 100 µM; in experiment [2], 74.9 µM; in [3] it was above 100 µM; in [4], above 100 µM; in experiment [5], above 100 µM; in experiment [6] it was above 100 µM. Besides, the total growth inhibition concentration (TGI) in experiment [7] is 97.6 µM; in [8], above 100 µM.

For the compound `N#Cc1c(-c2ccco2)cc(-c2ccc(N)cc2)[nH]c1=O`, the TGI in [9], in experiment [1], in experiment [2], in experiment [3], in experiment [4] and in experiment [5] was above 100 µM in each case. In addition, the TGI in experiment [6], in experiment [7] and in experiment [8] was above 100 µM throughout.

`COc1cc(C(=O)O[C@H](C(N)=O)[C@]2(C)CO2)c2cccc(C)c2c1`: the concentration for 50% growth inhibition (GI50) in [9] is 0.148 µM; in experiment [3], below 0.0317 µM; in experiment [4] it was below 0.0342 µM; in experiment [10], below 0.0367 µM; in [7] it was below 0.0417 µM; in experiment [8] it was below 0.0203 µM. For the same compound, the total growth inhibition concentration (TGI) was 1.1 µM in experiment [9]; 8.21 µM in experiment [3]; 0.638 µM in experiment [4]; above 100 µM in experiment [10]; above 100 µM in experiment [6]; 1.84 µM in [7].

Take `O=C1C2[C@@H](C(=O)N1c1ccc(Br)cc1)C13C(=CC2([N+](=O)[O-])[C@@H]2C(=O)N(c4ccc(Br)cc4)C(=O)[C@@H]21)c1ccccc1N3c1ccccc1` (some centres not stated): the TGI in [9], in experiment [1], in experiment [2], in experiment [3], in experiment [4] and in [5] was above 100 µM throughout. Further, the concentration for total growth inhibition (TGI) in experiment [6], in experiment [7] and in [8] was above 100 µM in each case.

Regarding `NC(=S)N/N=C1\CCCC\C1=C/c1ccccc1`, the concentration for total growth inhibition (TGI) in experiment [9] is above 100 µM; in [1], 84.4 µM; in [2] it was 4.74 µM; in experiment [3], above 100 µM; in [4], 37.9 µM; in [5], above 100 µM. In addition, the concentration for total growth inhibition (TGI) in experiment [6], in [7] and in experiment [8] was above 100 µM each time.

`CC12CCC(=O)N1c1cccnc1N2` (configuration not stated): the total growth inhibition concentration (TGI) in experiment [9], in [1], in [2], in [3], in [4] and in experiment [5] was above 100 µM in each case. Also, the total growth inhibition concentration (TGI) in [6], in [7] and in [8] was above 100 µM in each case.

Regarding `Cc1ccc2c(c1-c1ccccc1)C(=O)OC2`, the TGI in experiment [9], in experiment [1], in experiment [2], in experiment [3], in [4] and in experiment [6] was above 100 µM in each case. For the same compound, in [8], the concentration for total growth inhibition (TGI) is above 100 µM.

On to `O=C1C=CC(=CC=C2C=CN(CCCCCCCCCCC(=O)NCCCCCCCCCCCC(=O)O)C=C2)C=C1`, for which the total growth inhibition concentration (TGI) in experiment [9], in experiment [1], in experiment [2], in experiment [3], in experiment [4] and in [5] was above 100 µM in each case. Also, the TGI in experiment [6], in experiment [7] and in experiment [8] was above 100 µM in each case.

`CCOC(=O)C(C)(c1c(C)[nH]c2ccccc12)c1c(C)[nH]c2ccccc12`: the TGI in experiment [9] is 25.8 µM; in [1] it was 42.9 µM; in [2] it was 37.6 µM; in experiment [3], 34 µM; in experiment [6] it was 49.7 µM; in [7], 29 µM. The compound further displayed a concentration for total growth inhibition (TGI) in experiment [8] of 37.5 µM.

Consider `NC(CCc1ncc(C(=O)O)s1)C(=O)O` (configuration not stated), for which the TGI in [9], in experiment [1], in experiment [3], in experiment [4], in experiment [5] and in [6] was above 100 µM each time. Also, the TGI in [7] and in [8] was above 100 µM each time.

Take `Cc1ccc(N2C(=O)N(c3ccc(C)cc3)C3(SC=NN3C)C2=O)cc1` (configuration not stated): the TGI in experiment [9], in experiment [1], in experiment [2], in experiment [3], in [4] and in experiment [5] was above 100 µM in each case. Moreover, the total growth inhibition concentration (TGI) in experiment [6], in [7] and in experiment [8] was above 100 µM in each case.

Take `Cc1c(Cl)cccc1NC(=O)c1cccc([N+](=O)[O-])c1O`: the TGI was 19.7 µM in experiment [9]; 46.7 µM in [1]; above 49.4 µM in [2]; 51.4 µM in experiment [3]; 31.6 µM in experiment [4]; 36.3 µM in experiment [5]. In addition, the TGI is above 72.1 µM in [6], 65 µM in experiment [7] and 29.4 µM in experiment [8].

For the compound `CC(C)(C)OC(=O)N1C2CCCC23O[C@@H]1c1cc2c(cc1C3=O)OCO2` (some centres not stated), the TGI in experiment [9] was 83.2 µM; in [1] it was above 100 µM; in [2] it was 38.3 µM; in experiment [3], 40.2 µM; in experiment [4], 31.3 µM; in experiment [6], above 100 µM. Moreover, the TGI in experiment [7] is 82.9 µM; in experiment [8] it was above 100 µM.

Usually GI50 stands for the concentration giving 50% growth inhibition. What is called TGI is the concentration giving total growth inhibition. A low value points to more potent growth arrest.
